Results: publication PMC4465654, “Multi-Leu PACE4 Inhibitor Retention within Cells Is PACE4 Dependent and a Prerequisite for Antiproliferative Activity” (BioMed Research International, 2015)
Entries after “also recorded” stand apart in the source; their conditions may differ. Read-outs that look alike come from different tables or passages of the source. Where a SMILES comes first, the peptide text is derived from it.

Tests used:
[1] = test system: HT1080 cells; test: MTT cell proliferation assay, HT1080; type: cell-based; details: 72 h, serum-free medium, 1 μM to 300 μM, means of at least 3 independent experiments (Figure 5c)
[2] = test system: HepG2 cells; test: MTT cell proliferation assay, HepG2; type: cell-based; details: 72 h, serum-free medium, 1 μM to 300 μM, means of at least 3 independent experiments (Figure 5a)
Method: (§1) To evaluate peptide growth inhibitory properties, 3000 (Huh7) and 4000 (HepG2) cells were seeded in triplicate in 96-well plates. After 24 h, media was changed for serum-free medium and increasing concentrations of peptide were added. After 72 h, 25 μL of 3-(4,5-Dimethylthiazol-2-yl)-2,5-diphenyltetrazolium bromide (MTT) reagent (5 mg/mL; Sigma Aldrich) was added to each well and, after 4-hour incubation, medium was carefully removed and cells were lysed in acidic isopropanol (24 : 1 HCl 1 N). Absorbance at 550 nm and 650 nm (reference wavelength) was measured using a plate spectrophotometer.
(§2) Figure 5 Antiproliferative properties of ML peptide on the tested cell lines. […] Data are means ± SEM of at least 3 independent experiments.

[3] = molecular target: recombinant PACE4; details: in vitro inhibition, read-out: K i against recombinant PACE4, cited from earlier work
[4] = test system: Huh7 cells; test: MTT cell proliferation assay, Huh7; type: cell-based; details: 72 h, serum-free medium, 1 μM to 300 μM, means of at least 3 independent experiments (Figure 5b)
Method: as §1, §2

Structure (SMILES)	inhibition of cell proliferation relative to untreated cells [1]	inhibition of cell proliferation relative to untreated cells [2]	Ki ([3]; independently of the addition of the NOTA moiety) [nM]	inhibition of cell proliferation relative to untreated cells [4]	Ki [3] [nM]
CC(=O)N[C@@H](CC(C)C)C(=O)N[C@@H](CC(C)C)C(=O)N[C@@H](CC(C)C)C(=O)N[C@@H](CC(C)C)C(=O)N[C@@H](CCCNC(=N)N)C(=O)N[C@H](C(=O)N[C@@H](CCCCN)C(=O)N[C@@H](CCCNC(=N)N)C(N)=O)C(C)C [ML peptide, Ac-LLLLRVKR-NH2] (Ac-LLLLRVKR-NH2)	dose-response inhibition of cell proliferation; also recorded: lowest response	dose-response inhibition of cell proliferation	20	dose-response inhibition of cell proliferation	
CC(=O)N[C@@H](CCCNC(=N)N)C(=O)N[C@@H](CC(C)C)C(=O)N[C@@H](CCCNC(=N)N)C(=O)N[C@@H](CC(C)C)C(=O)N[C@@H](CC(C)C)C(=O)N[C@@H](CCCCN)C(=O)N[C@H](C(=O)N[C@@H](CC(C)C)C(N)=O)C(C)C [scramble version of the ML peptide, Ac-RLRLLKVL-NH2, reference compound] (Ac-RLRLLKVL-NH2)	inactive	inactive		inactive	> 10000
